Reference: US20250042912A1, “NOVEL NON-FLUORINATED QUINOLONE COMPOUND AND USE THEREOF” (priority 2021, published 2025)
Counter-ions that a name gives are not always drawn.

Assay: Pharmacokinetic evaluation in mice after intravenous and oral administration
Assay type: in vivo
Details: mouse, plasma, male CD-1 mice
Method: CD-1 mice (male, Beijing Vital River Laboratory Animal Technology Co., Ltd.)
The pharmacokinetic characteristics of rodents after intravenous and oral administration of the compounds were tested using a standard protocol. In the experiment, the candidate compounds were prepared into clear solutions and administered to mice by single intravenous injection and oral administration. The intravenous and oral vehicles were mixed vehicles of 10% DMSO+90% (20% SBE-β-CD). This project included four male CD-1 mice, two of which were administered intravenously at a dosage of 1 mg/kg, and plasma samples were collected at 0.083 hours, 0.25 hours, 0.5 hours, 1 hour, 2 hours, 4 hours, 8 hours, and 24 hours after administration; the other two mice were orally administered by gavage at a dosage of 2 mg/kg, and plasma samples were collected at 0.25 hours, 0.5 hours, 1 hour, 2 hours, 4 hours, 8 hours, and 24 hours after administration. Blood samples were placed on ice after collection, and plasma was separated by centrifugation within 1 hour (centrifugation conditions: 6000 g, 3 minutes, 2-8° C.). Plasma samples were stored in a refrigerator at −80° C. before analysis. Plasma concentrations were quantitatively analyzed using LC-MS/MS analysis method, and pharmacokinetic parameters were calculated such as peak concentration (Cmax), clearance rate (CL), half-life (T1/2), […] (Vdss), area under concentration-time curve (AUC0-last), and bioavailability (F), etc.

`Nc1cc2c(cn1)-c1ccc3c(=O)c(C(=O)O)cn(C4CC4)c3c1COC2` [Hydrochloride of Compound 7] gave a bioavailability (IV 1 mg/kg, oral gavage 2 mg/kg, read-out: Bioavailability F) of 132%, a Cmax (IV 1 mg/kg, oral gavage 2 mg/kg, route of Cmax not given, read-out: Peak concentration Cmax) of 683 nM and a clearance (IV 1 mg/kg, read-out: Clearance rate CL) of 132 mL/min/kg. For the same compound, the half-life (IV 1 mg/kg, read-out: Half-life T1/2 (IV) (converted)) was 20.5 min, the Vd (IV 1 mg/kg, read-out: Tissue distribution Vdss) was 3.04 L/kg and the AUC(0-t) (oral gavage 2 mg/kg, read-out: Area under concentration-time curve AUC0-last PO) was 0.924 µM·h.
